Measurements as given in patent publication US20240109881A1, “Heteroaryl Compounds as Ligand Directed Degraders of IRAK4” (Bristol-Myers Squibb Company, priority 2022, published 2024).

Target: T1, IRAK4 (Homo sapiens, UniProt Q9NWZ3)
T1 construct: endogenous in cells; host or cells: THP-1 cells
T1 sequence (Q9NWZ3 1-460): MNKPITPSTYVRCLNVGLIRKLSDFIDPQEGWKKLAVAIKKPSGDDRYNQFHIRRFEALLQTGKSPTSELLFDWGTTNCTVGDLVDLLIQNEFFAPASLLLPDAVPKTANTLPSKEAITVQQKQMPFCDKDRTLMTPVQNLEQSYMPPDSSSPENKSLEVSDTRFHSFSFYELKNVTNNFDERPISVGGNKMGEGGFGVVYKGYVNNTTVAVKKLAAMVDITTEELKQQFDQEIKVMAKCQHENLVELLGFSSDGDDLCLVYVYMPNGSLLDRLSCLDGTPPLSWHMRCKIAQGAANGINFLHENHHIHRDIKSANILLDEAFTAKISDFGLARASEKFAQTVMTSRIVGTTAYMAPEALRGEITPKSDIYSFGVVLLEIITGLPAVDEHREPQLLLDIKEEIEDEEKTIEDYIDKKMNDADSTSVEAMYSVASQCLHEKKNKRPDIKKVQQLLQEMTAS
Assay: ALE THP1 HTRF (Advanced Lipoxidation End Product THP1 Homogeneous Time Resolved Fluorescence)
Type: cell-based
Conditions: THP1 cells
Procedure, shortened: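 HTRF read-out of IRAK4 protein: anti-IRAK4 d2 and cryptate antibody pair added to BCA-normalized lysates, overnight dark room-temperature incubation. Lysis ran 45 min with shaking at room temperature; buffer, cryptate-only and negative controls included.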

| ALE THP1 HTRF YMIN | EC50 | SMILES |
| --- | --- | --- |
| 24.6% | 92 nM | N#Cc1cnc2c(c1)c(F)cn2-c1cc(NC2CC2)c(C(=O)NC2CCC(CCN3CCN(c4ccc(C5CCC(=O)NC5=O)cc4)CC3)CC2)cn1 (centres unmarked) [P-101] |
| 14.2% | 32 nM | N#Cc1cnc2c(cnn2-c2cc(NC3CC3)c(C(=O)NC3CCC(NCC4CCN(c5ccc(C6CCC(=O)NC6=O)cc5)CC4)CC3)cn2)c1 (centres unmarked) [P-102] |
| 16.2% | 29 nM | CN(CC1CCN(c2ccc(C3CCC(=O)NC3=O)cc2)CC1)[C@H]1CC[C@H](NC(=O)c2cnc(-n3ncc4cc(C#N)cnc43)cc2NC2CC2)CC1 (some centres unmarked) [P-103, 6-(5-cyanopyrazolo[3,4-b]pyridin-1-yl)-4-(cyclopropylamino)-N-[4-[[1-[4-(2,6-dioxo-3-piperidyl)phenyl]-4-piperidyl]methyl-methyl-amino]cyclohexyl]pyridine-3-carboxamide] |
| 16.0% | 47 nM | N#Cc1cnc2c(cnn2-c2cc(NC3CC3)c(C(=O)N[C@H]3CC[C@H](C(F)(F)CN4CCN(c5ccc(C6CCC(=O)NC6=O)cc5)CC4)CC3)cn2)c1 (some centres unmarked) [P-104, 6-(5-cyanopyrazolo[3,4-b]pyridin-1-yl)-4-(cyclopropylamino)-N-[4-[2-[4-[4-(2,6-dioxo-3-piperidyl)phenyl]piperazin-1-yl]-1,1-difluoro-ethyl]cyclohexyl]pyridine-3-carboxamide] |
| 11.5% | 76 nM | N#Cc1cnc2c(cnn2-c2cc(NCC3CC3)c(C(=O)N[C@H]3CC[C@H](CCN4CCN(c5ccc(C6CCC(=O)NC6=O)cc5)CC4)CC3)cn2)c1 (some centres unmarked) [P-105] |
| 17.5% | 246 nM | N#Cc1cnc2c(cnn2-c2cc(NC[C@H]3CCCO3)c(C(=O)N[C@H]3CC[C@H](CCN4CCN(c5ccc(C6CCC(=O)NC6=O)cc5)CC4)CC3)cn2)c1 (some centres unmarked) [P-106] |
| 9.1% | 14 nM | CCCNc1cc(-n2ncc3cc(C#N)cnc32)ncc1C(=O)N[C@H]1CC[C@H](CCN2CCN(c3ccc(C4CCC(=O)NC4=O)cc3)CC2)CC1 (some centres unmarked) [P-107] |
| 11.0% | 32 nM | CC(C)(O)CNc1cc(-n2ncc3cc(C#N)cnc32)ncc1C(=O)N[C@H]1CC[C@H](CCN2CCN(c3ccc(C4CCC(=O)NC4=O)cc3)CC2)CC1 (some centres unmarked) [P-108] |
| 10.7% | 8 nM | N#Cc1cnn2c(-c3cc(NC4CC4)c(C(=O)N[C@H]4CC[C@H](CCN5CCN(c6ccc(C7CCC(=O)NC7=O)cc6)CC5)CC4)cn3)ccc2c1 (some centres unmarked) [P-109] |
| 8.7% | 23 nM | N#Cc1cnc2c(cnn2-c2cc(NCC(F)(F)F)c(C(=O)N[C@H]3CC[C@H](CCN4CCN(c5ccc(C6CCC(=O)NC6=O)cc5)CC4)CC3)cn2)c1 (some centres unmarked) [P-112] |
| 18.7% | 74 nM | N#Cc1cnc2c(cnn2-c2cc(NCC3CCCO3)c(C(=O)N[C@H]3CC[C@H](CCN4CCN(c5ccc(C6CCC(=O)NC6=O)cc5)CC4)CC3)cn2)c1 (some centres unmarked) [P-113] |
| 46.1% | > 5000 nM | O=C1CCC(c2ccc(N3CCN(CC[C@H]4CC[C@H](NC(=O)c5cnc(-n6ncc7cc(Cl)cnc76)cc5NC5CC5)CC4)CC3)cc2)C(=O)N1 (some centres unmarked) [P-114] |
| 38.9% | > 5000 nM | CC(C)(C#N)Nc1cc(-n2ncc3cc(C#N)cnc32)ncc1C(=O)N[C@H]1CC[C@H](CCN2CCN(c3ccc(C4CCC(=O)NC4=O)cc3)CC2)CC1 (some centres unmarked) [P-115] |
| 8.3% | 7 nM | C[C@H]1CN(c2ccc(C3CCC(=O)NC3=O)cc2)C[C@H](C)N1CC[C@H]1CC[C@H](NC(=O)c2cnc(-n3ncc4cc(C#N)cnc43)cc2NC2CC2)CC1 (some centres unmarked) [P-116] |
| 13.6% | 33 nM | O=C1CCC(c2ccc(N3CCN(CC[C@H]4CC[C@H](NC(=O)c5cnc(-n6ncc7cncnc76)cc5NC5CC5)CC4)CC3)cc2)C(=O)N1 (some centres unmarked) [P-117] |
| 9.9% | 34 nM | N#Cc1cnc2c(cnn2-c2cc(NCCC(F)(F)F)c(C(=O)N[C@H]3CC[C@H](CCN4CCN(c5ccc(C6CCC(=O)NC6=O)cc5)CC4)CC3)cn2)c1 (some centres unmarked) [P-118] |

| ALE THP1 HTRF YMIN | EC50 | SMILES |
| --- | --- | --- |
| 8.3% | 25 nM | CCC1(Nc2cc(-n3ncc4cc(C#N)cnc43)ncc2C(=O)N[C@H]2CC[C@H](CCN3CCN(c4ccc(C5CCC(=O)NC5=O)cc4)CC3)CC2)CC1 (some centres unmarked) [P-119] |
| 7.2% | 15 nM | C[C@@H]1CN(CC[C@H]2CC[C@H](NC(=O)c3cnc(-n4ncc5cc(C#N)cnc54)cc3NC3CC3)CC2)CCN1c1ccc(C2CCC(=O)NC2=O)cc1 (some centres unmarked) [P-120] |
| 11.0% | 13 nM | C[C@H]1CN(CC[C@H]2CC[C@H](NC(=O)c3cnc(-n4ncc5cc(C#N)cnc54)cc3NC3CC3)CC2)CCN1c1ccc(C2CCC(=O)NC2=O)cc1 (some centres unmarked) [P-121] |
| 10.4% | 80 nM | N#Cc1cnc2c(cnn2-c2cc(NC3(C#N)CC3)c(C(=O)N[C@H]3CC[C@H](CCN4CCN(c5ccc(C6CCC(=O)NC6=O)cc5)CC4)CC3)cn2)c1 (some centres unmarked) [P-122] |
| 24.4% | 62 nM | N#Cc1cnn2c(-c3cc(NC4CC4)c(C(=O)N[C@H]4CC[C@H](CCN5CCN(c6ccc(C7CCC(=O)NC7=O)cc6)CC5)CC4)cn3)cnc2c1 (some centres unmarked) [P-123] |
| 19.2% | 46 nM | N#Cc1cnc2c(cnn2-c2cc(NC3CC3)c(C(=O)N[C@H]3CC[C@H](CCN4CC5(C4)CN(c4ccc(C6CCC(=O)NC6=O)cc4)C5)CC3)cn2)c1 (some centres unmarked) [P-124] |
| 24.5% | 8 nM | CN(C[C@H]1CC[C@H](NC(=O)c2cnc(-n3ncc4cc(C#N)cnc43)cc2NC2CC2)CC1)C1CCN(c2ccc3c(c2)CN(C2CCC(=O)NC2=O)C3=O)CC1 (some centres unmarked) [P-127] |
| 24.2% | 47 nM | N#Cc1cnc2c(cnn2-c2cc(NC3CC3)c(C(=O)N[C@H]3CC[C@H](C(=O)NC4CCN(c5ccc6c(c5)CN(C5CCC(=O)NC5=O)C6=O)CC4)CC3)cn2)c1 (some centres unmarked) [P-129] |
| 20.0% | 15 nM | N#Cc1cnc2c(cnn2-c2cc(NC3CC3)c(C(=O)N[C@H]3CC[C@H](CN4CCC5(CCN(c6ccc7c(c6)CN(C6CCC(=O)NC6=O)C7=O)CC5)C4)CC3)cn2)c1 (some centres unmarked) [P-130] |
| 5.3% | 3 nM | N#Cc1cc2cnn(-c3cc(NC4CC4)c(C(=O)N[C@H]4CC[C@H](CCN5CCN(c6ccc(C7CCC(=O)NC7=O)cc6)CC5)CC4)cn3)c2nc1N (some centres unmarked) [P-131] |
| 7.9% | 13 nM | CS(=O)(=O)N1CCC(Nc2cc(-n3ncc4cc(C#N)cnc43)ncc2C(=O)N[C@H]2CC[C@H](CCN3CCN(c4ccc(C5CCC(=O)NC5=O)cc4)CC3)CC2)CC1 (some centres unmarked) [P-132] |
| 6.9% | 10 nM | CS(=O)(=O)N1CCC(Nc2cc(-n3ncc4cc(C#N)c(N)nc43)ncc2C(=O)N[C@H]2CC[C@H](CCN3CCN(c4ccc(C5CCC(=O)NC5=O)cc4)CC3)CC2)CC1 (some centres unmarked) [P-133] |
| 20.9% | 94 nM | CC(C)Nc1cc(Nc2ccc(C#N)cc2Cl)ncc1C(=O)N[C@H]1CC[C@H](CCN2CCN(c3ccc(C4CCC(=O)NC4=O)cc3)CC2)CC1 (some centres unmarked) [P-134] |
| 7.3% | 1 nM | C[C@H](C#N)Nc1cc(-n2ncc3cc(C#N)c(N)nc32)ncc1C(=O)N[C@H]1CC[C@H](CCN2CCN(c3ccc(C4CCC(=O)NC4=O)cc3)CC2)CC1 (some centres unmarked) [P-135] |
| 7.4% | 6 nM | C[C@H](C#N)Nc1cc(-n2ncc3cc(C#N)cnc32)ncc1C(=O)N[C@H]1CC[C@H](CCN2CCN(c3ccc(C4(C)CCC(=O)NC4=O)cc3)CC2)CC1 (some centres unmarked) [P-136] |
